Data reported in patent publication US12370182B2, “Bicyclic derivatives as GABAA A5 receptor modulators” (RICHTER GEDEON NYRT., priority 2018, dated 2025).

Experiments:
[1] = target: T1, human recombinant GABAA α5β3γ2 receptor (Homo sapiens (Human), UniProt P18507+P31644); assay: Binding assay, [3H]Ro151788 displacement on membranes of HEK cells; conditions: 0.5 nM [3H]Ro151788, 60 minutes at 4° C., Cheng-Prusoff; read-out: hGABAA α5 Ki
Procedure, shortened: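 HEK-cell membranes with recombinant human α5β3γ2 incubated 60 min at 4 °C with 0.5 nM [3H]Ro151788 in 50 mM Tris pH 7.4, 100 mM KCl; nonspecific binding with 10 μM diazepam. Filtration, scintillation count; % inhibition of specific binding, IC50 from ≥6 concentrations in triplicate, Ki via Cheng-Prusoff.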

[2] = target: human recombinant GABAA α1β3γ2 receptor (Homo sapiens (Human), UniProt P14867+P18507); assay: Functional assay, QPatch automated patch clamp, GABA-evoked currents; assay type: cell-based; conditions: test compound 10 μM, 1 μM GABA, HEK293 cells, percentage modulation of peak current
human recombinant GABAA α1β3γ2 receptor, sequence (P14867 28-456): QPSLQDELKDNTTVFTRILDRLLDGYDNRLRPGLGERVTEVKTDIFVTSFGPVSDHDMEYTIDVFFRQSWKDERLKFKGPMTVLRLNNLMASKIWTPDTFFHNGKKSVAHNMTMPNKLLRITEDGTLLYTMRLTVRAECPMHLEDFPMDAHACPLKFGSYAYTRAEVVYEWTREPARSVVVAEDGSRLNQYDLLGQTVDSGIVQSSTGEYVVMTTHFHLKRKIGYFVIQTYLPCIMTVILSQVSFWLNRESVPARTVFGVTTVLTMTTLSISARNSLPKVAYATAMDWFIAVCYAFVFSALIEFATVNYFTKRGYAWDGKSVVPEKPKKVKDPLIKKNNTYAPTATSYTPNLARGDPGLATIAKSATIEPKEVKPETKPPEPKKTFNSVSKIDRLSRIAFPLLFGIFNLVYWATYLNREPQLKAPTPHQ
human recombinant GABAA α1β3γ2 receptor, sequence (P28472 26-473 partner): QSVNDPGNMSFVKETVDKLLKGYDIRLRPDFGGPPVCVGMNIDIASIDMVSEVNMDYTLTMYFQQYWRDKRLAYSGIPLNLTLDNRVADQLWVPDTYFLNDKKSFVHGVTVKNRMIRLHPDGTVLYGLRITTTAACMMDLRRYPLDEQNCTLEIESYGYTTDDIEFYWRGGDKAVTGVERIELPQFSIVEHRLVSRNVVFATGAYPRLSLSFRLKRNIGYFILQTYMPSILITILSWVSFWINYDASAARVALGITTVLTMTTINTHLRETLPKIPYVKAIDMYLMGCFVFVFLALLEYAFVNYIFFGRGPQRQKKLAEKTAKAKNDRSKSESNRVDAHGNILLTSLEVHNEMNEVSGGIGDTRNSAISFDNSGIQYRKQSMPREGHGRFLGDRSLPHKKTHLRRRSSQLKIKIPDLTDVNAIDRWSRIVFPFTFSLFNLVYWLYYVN
human recombinant GABAA α1β3γ2 receptor, sequence (P18507 40-475): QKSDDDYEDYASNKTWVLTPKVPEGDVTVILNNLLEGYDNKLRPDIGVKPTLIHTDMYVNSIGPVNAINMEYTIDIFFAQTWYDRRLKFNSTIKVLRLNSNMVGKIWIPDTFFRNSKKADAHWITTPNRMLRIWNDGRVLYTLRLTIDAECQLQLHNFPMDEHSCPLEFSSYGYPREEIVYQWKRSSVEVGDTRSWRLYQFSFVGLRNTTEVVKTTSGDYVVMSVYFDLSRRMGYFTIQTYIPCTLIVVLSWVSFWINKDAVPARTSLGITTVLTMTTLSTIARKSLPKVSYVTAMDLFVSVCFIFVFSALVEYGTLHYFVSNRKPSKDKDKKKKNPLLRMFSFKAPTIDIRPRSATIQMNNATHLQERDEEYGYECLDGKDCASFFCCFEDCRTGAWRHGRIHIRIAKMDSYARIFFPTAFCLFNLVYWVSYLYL
Protocol: (§1) Human HEK293 cell lines expressing GABAA α1β3γ2 and GABAAα5β3γ2 receptors were used in functional assays using the QPatch automated patch clamp system.
(§2) HEK293 cell lines stably expressing human recombinant GABAA α1β3γ2 receptor subunits (Millipore, CYL3073) or human recombinant GABAA α5β3γ2 receptor subunits (Millipore, CYL3053) were cultured in DMEM supplemented with 10% FBS (Gibco), passed two times per week and plated on Petri dishes previously coated with poly-d-lysine.
(§3) Automated whole-cell patch clamp recordings were made from cells 2-4 days after plating. Cells were detached using trypsin/EDTA (Sigma) treatment (2 minutes in 0.25% trypsin at 37° C.), then, after centrifugation (125 G, 3 min, 2×), resuspended in a serum-free based media (Gibco, CHO—S-SFM-II) containing 12.5 mM HEPES, 1× penicillin-streptomycin-amphotericin (SigmaMix) and soybean trypsin inhibitor (Sigma, 0.04 mg/ml).
(§4) Cell suspension, as well as the extracellular solution (130 mM NaCl, 5 mM KCl, 5.1 mM HEPES, 4.9 mM HEPES-Na, 10 mM CaCl2), 2 mM MgCl2, 10 mM glucose and 0.1% DMSO, pH=7.35-7.4) and the intracellular solution (80 mM KCl, 50 mM KF, 36 mM KOH, 10 mM EGTA, 10 mM HEPES, 1.75 mM MgCl2, 0.5 mM CaCl2), 4 mM Na2ATP. 14 mM phosphocreatine, 50 U/ml creatine-phosphokinase, 0.3 mM GTP, pH=7.25-7.3) were added to the QPatch-HTX automated patch clamp system (Sophion) in single-cell mode at room temperature. […] At the end of the experiment 100 μM GABA was applied to saturate the GABA-response and to assess the efficacy of the control GABA application.
(§5) The percentage modulation was calculated from the comparison of GABA-evoked peak current amplitudes in the presence and absence of the test compound.

[3] = target: T1, human recombinant GABAA α5β3γ2 receptor; assay: as above; assay type: cell-based; conditions: test compound 10 μM, 1 μM GABA, HEK293 cells, percentage modulation of peak current
Protocol: as §1, §2, §3, §4, §5

T1 sequence (P31644 32-462): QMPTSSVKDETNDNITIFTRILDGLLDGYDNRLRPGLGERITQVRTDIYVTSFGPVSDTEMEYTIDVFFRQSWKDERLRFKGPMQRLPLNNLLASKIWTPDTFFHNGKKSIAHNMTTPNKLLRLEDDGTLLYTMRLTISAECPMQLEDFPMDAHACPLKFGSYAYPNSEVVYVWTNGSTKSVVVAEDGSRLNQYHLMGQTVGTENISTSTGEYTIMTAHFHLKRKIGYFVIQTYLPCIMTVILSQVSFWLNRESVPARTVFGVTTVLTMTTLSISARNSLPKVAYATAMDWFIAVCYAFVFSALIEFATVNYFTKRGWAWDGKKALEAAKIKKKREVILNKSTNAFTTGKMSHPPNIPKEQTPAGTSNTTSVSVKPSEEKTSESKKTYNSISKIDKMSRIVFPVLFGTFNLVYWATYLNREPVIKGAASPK
T1 sequence (P28472 26-473 partner): as the sequence (P28472 26-473 partner) above
T1 sequence (P18507 40-475): as the sequence (P18507 40-475) above

For `Cc1nnn(-c2ccc(F)cc2)c1COc1ccc2c(n1)CCN(C(=O)[C@@H]1CCOC1)C2` [Example 17, 2-{[1-(4-fluorophenyl)-4-methyl-1H-1,2,3-triazol-5-yl]methoxy}-6-[(3R)-oxolane-3-carbonyl]-5,6,7,8-tetrahydro-1,6-naphthyridine], the Ki [1] was 69 nM, the “hGABAA α1 efficacy” value [2] was −6% and the “hGABAA α5 efficacy” value [3] was −37%.
In the case of `Cc1nnn(-c2ccc(F)cc2)c1COc1ccc2c(n1)CCN(C(=O)[C@H]1CCOC1)C2` [Example 18, 2-{[1-(4-fluorophenyl)-4-methyl-1H-1,2,3-triazol-5-yl]methoxy}-6-[(3S)-oxolane-3-carbonyl]-5,6,7,8-tetrahydro-1,6-naphthyridine], the Ki [1] is reported as 50 nM, the “hGABAA α1 efficacy” value [2] is reported as −5% and the “hGABAA α5 efficacy” value [3] is reported as −45%.
`Cc1nnn(-c2ccc(F)cc2)c1COc1ccc2c(n1)CCN(C(=O)C1CCS(=O)(=O)CC1)C2` [Example 23, 4-(2-{[1-(4-fluorophenyl)-4-methyl-1H-1,2,3-triazol-5-yl]methoxy}-5,6,7,8-tetrahydro-1,6-naphthyridine-6-carbonyl)-1lambda6-thiane-1,1-dione] was tested, and the Ki [1] was 45 nM, the “hGABAA α1 efficacy” value [2] was −4% and the “hGABAA α5 efficacy” value [3] was −47%.
For `Cc1nnn(-c2ccc(F)cc2)c1COc1ccc2c(n1)CCN(C(=O)C1CCOCC1)C2` [Example 28, 2-{[1-(4-fluorophenyl)-4-methyl-1H-1,2,3-triazol-5-yl]methoxy}-6-(oxane-4-carbonyl)-5,6,7,8-tetrahydro-1,6-naphthyridine], the Ki [1] was 43 nM, the “hGABAA α1 efficacy” value [2] was −6% and the “hGABAA α5 efficacy” value [3] was −40%.
In the case of `CC(=O)N1Cc2ccc(OCc3c(C)nnn3-c3ccc(F)cc3)nc2C1` [Example 45, 1-(2-{[1-(4-fluorophenyl)-4-methyl-1H-1,2,3-triazol-5-yl]methoxy}-5H,6H,7H-pyrrolo[3,4-b]pyridin-6-yl)ethan-1-one], the Ki [1] is reported as 3.2 nM, the “hGABAA α1 efficacy” value [2] is reported as −7% and the “hGABAA α5 efficacy” value [3] is reported as −30%.
`Cc1nnn(-c2ccc(F)cc2)c1COc1ccc2c(n1)CN(C(=O)C1CC1)C2` [Example 47, cyclopropyl(2-{[1-(4-fluorophenyl)-4-methyl-1H-1,2,3-triazol-5-yl]methoxy}-5,7-dihydro-6H-pyrrolo[3,4-b]pyridin-6-yl)methanone] was tested, and the Ki [1] was 7.2 nM, the “hGABAA α1 efficacy” value [2] was −10% and the “hGABAA α5 efficacy” value [3] was −34%.
In the case of `Cc1nnn(-c2ccc(F)cc2)c1COc1ccc2c(n1)CN(C(=O)CC(C)C)C2` [Example 56, 1-(2-{[1-(4-fluorophenyl)-4-methyl-1H-1,2,3-triazol-5-yl]methoxy}-5H,6H,7H-pyrrolo[3,4-b]pyridin-6-yl)-3-methylbutan-1-one], the Ki [1] is reported as 17 nM, the “hGABAA α1 efficacy” value [2] is reported as −14% and the “hGABAA α5 efficacy” value [3] is reported as −40%.
`Cc1nnn(-c2ccc(F)cc2)c1COc1ccc2c(n1)CN(C(=O)C1CCCO1)C2` (stereo not drawn) [Example 61, 1-(4-fluorophenyl)-4-methyl-5-({[6-(oxolane-2-carbonyl)-5H,6H,7H-pyrrolo[3,4-b]pyridin-2-yl]oxy}methyl)-1H-1,2,3-triazole] was tested, and the Ki [1] was 4.8 nM, the “hGABAA α1 efficacy” value [2] was −20% and the “hGABAA α5 efficacy” value [3] was −41%.
For `Cc1nnn(-c2ccc(F)cc2)c1COc1ccc2c(n1)CCN(C(=O)NC1CC(=O)N(C)C1)C2` (stereo not drawn) [Example 75, 2-{[1-(4-fluorophenyl)-4-methyl-1H-1,2,3-triazol-5-yl]methoxy}-N-(1-methyl-5-oxopyrrolidin-3-yl)-5,6,7,8-tetrahydro-1,6-naphthyridine-6-carboxamide], the Ki [1] was 38 nM, the “hGABAA α1 efficacy” value [2] was −3% and the “hGABAA α5 efficacy” value [3] was −35%.
With `Cc1nnn(-c2ccc(F)cc2)c1COc1ccc2c(n1)CCN(C(=O)NC1CCOC1)C2` (stereo not drawn) [Example 78, 2-{[1-(4-fluorophenyl)-4-methyl-1H-1,2,3-triazol-5-yl]methoxy}-N-(oxolan-3-yl)-5,6,7,8-tetrahydro-1,6-naphthyridine-6-carboxamide] the Ki [1] was 28 nM, the “hGABAA α1 efficacy” value [2] was −3% and the “hGABAA α5 efficacy” value [3] was −34%.
